Assay results: patent publication US20080280764A1, “Method of Desiccating and/or Defoliating Glyphosate Resistant Crops” (priority 2005, published 2008)

Tested on: Glyphosate resistant cotton
Assay: Field test: defoliation and desiccation of glyphosate resistant cotton
Format: in vivo
Conditions: post-emergence spray, scale 0-100% vs untreated plots
Experimental: In the examples below, the value E which is to be expected if the activity of the individual compounds is just additive was calculated using the method of S. R. Colby (1967) “Calculating synergistic and antagonistic responses of herbicide combinations”, Weeds 15, p. 22 ff.
where X=effect in percent using active compound A at an application rate a; Y=effect in percent using active compound B at an application rate b; E=expected effect (in %) of A+B at application rates a+b.
If the experimentally determined value is higher than the value E calculated according to Colby's equation, a synergistic effect is present.
The phenyluracils I and/or the other active ingredients according to the present invention were formulated in a suitable way, either separately or in mixture, e.g. as emulsifiable concentrates (EC), soluble concentrates (SL), suspo-emulsions (SE), suspension concentrates (SC) or water-dispersible granules (WG). The formulation(s) were suspended or emulsified in water as a distribution medium immediately prior to spraying. Afterwards, the aqueous mixture was evenly sprayed on the test plots by means of finely distributing nozzles.
The test plots of rows of fully mature crop plants at the beginning of leaf fall were of uniform size (typically between 14 and 37 square meters, each) and the distribution of treated and untreated plots was organized according to a randomised bloc design. The plots were treated post-emergence, i.e. the aqueous mixture as described above was sprayed on the crop plants.
The evaluation of the defoliation or desiccation caused by the phenyluracils I and/or the other active ingredients according to the present invention was carried out using a scale from 0 to 100%, compared to the untreated control plots. Here, 0 means no defoliation or desiccation and 100 means complete defoliation of the crop plants, or complete desiccation of the leaves of the crop plant.
Defoliation and Desiccation of Glyphosate Resistant Cotton by the Phenyluracil 1.7 Alone as Well as by a Mixture of the Phenyluracil 1.7 and Glyphosate; Field Test
In this example, glyphosate (isopropylammonium salt) was formulated as a 360 g/l SL and Phenyluracil 1.7 as a 120 g/l EC. Prior to application, the formulated active ingredients were tank-mixed with an aqueous 140 l/ha spray solution which contained, in addition, 10 g/l of Agridex.

[1] = use rate Phenyluracil I.7 12.5 g/ha

Row | Compound | Glyphosate resistant cotton defoliation at 4 DAT (% defoliation), Found (use rate glyphosate 840 g/ha) [%] | Glyphosate resistant cotton desiccation at 4 DAT (% desiccation), Found (use rate glyphosate 840 g/ha) [%] | Glyphosate resistant cotton defoliation at 4 DAT (% defoliation), Found [1] [%] | Glyphosate resistant cotton desiccation at 4 DAT (% desiccation), Found [1] [%]
1 | O=C(O)CNCP(=O)(O)O [Glyphosate, glyphosate] | 0 | 3 |  | 
2 | CC(C)N(C)S(=O)(=O)NC(=O)c1cc(-n2c(=O)cc(C(F)(F)F)n(C)c2=O)c(F)cc1Cl [I.7] |  |  | 13 | 63
